Laboratory results published in US20160051543A1 (CHANRX CORPORATION, priority 2013, published 2016).

Assays:
[1] = Adverse events in the AF/AFL conversion study (Example 6); type: in vivo, human
Excerpt: (§1) The vanoxerine or identical appearing placebo was randomly assigned and administered in a double-blinded fashion.

[2] = cited from earlier work
[3] = Plasma concentrations after a single 300 mg dose of vanoxerine in 25 patients (Example 1); type: in vivo, human; settings: any time point
Experimental: Each patient gave samples before administration of their dose, and then again at nine further time points, 30 minutes after administration, 1, 2, 3, 4, 6, 8, 12, and 24 hours post administration.

[4] = Daily dosing for 7 days in four patients (Example 4); type: in vivo, human
[5] = between patients; cited from earlier work
[6] = human, in vivo
Experimental: A standardized meal was served 15 minutes prior to each dosing.
The non-linear kinetics may be due to increasing bioavailability at higher doses based on a saturation of first pass metabolism.

[7] = tested on: recent onset symptomatic AF/AFL; experiment: Double-blinded placebo-controlled study, conversion of recent onset symptomatic AF/AFL to sinus rhythm (Example 6); type: in vivo, human
Experimental: as §1
Accordingly, a measurement of the improvement comprises a comparison to the rate of conversion of placebo, wherein the improvement is based on the percent increase in conversion over placebo. The 200 mg, having an improvement of conversion of 38%, 96%, and 55% at the above time points, 300 mg: 207%, 126%, and 68%, and the 400 mg: 300%, 230%, and 121%.
Definition of “pure” atrial flutter: only Atrial Flutter (no AF) seen at −30, −15, and 0 time points. Conversion at any time within 24 hours.
The highest oral dose of 400 mg achieved a conversion rate of 76% at 8 hours and 84% within 24 hours.

clinical = settings: human, in vivo
Excerpt: The results are listed below in Table 7.

[8] = cited from earlier work; remark: listed apart in the source
[9] = tested on: conversion to normal sinus rhythm; experiment: Human plasma concentration charted against conversion to normal sinus rhythm; type: in vivo
Experimental: This study favorable compares favorably to human models where plasma concentration is charted against conversion to normal sinus rhythm. […] However, most conversions occurred in the range of about 60 ng/ml. Accordingly, modifying doses to reach 60 ng/ml or higher is preferred for effective conversion to normal sinus rhythm.

Q: With `Fc1ccc(C(OCCN2CCN(CCCc3ccccc3)CC2)c2ccc(F)cc2)cc1` [Vanoxerine, 1-[2-[bis(4-fluorophenyl)methoxy]ethyl]-4-(3-phenylpropyl)piperazine] as the molecule, how does the “Number of adverse events reported” value ([1]; 200 mg (22)) read?
A: The value was 8 AEs.

Q: And the “Number of serious adverse events” value ([1]; 200 mg (22))?
A: Its value is 1 SAE.

Q: What about the “Number of adverse events reported” value ([1]; 300 mg (25)) of the same molecule?
A: The value was 12 AEs.

Q: What about the “Number of adverse events reported” value ([1]; 400 mg (25)) of the same molecule?
A: Its value is 23 AEs.

Q: And the “Number of serious adverse events” value ([1]; 400 mg (25))?
A: Its value is 1 SAE.

Q: What about the Tolerability ([1]; all doses) of the same molecule?
A: The Tolerability was “well tolerated at all doses”.

Q: And the “1:1 AFL post dose” value ([1]; any subject)?
A: The value was “No 1:1 AFL seen post dose in any subject”.

Q: What about the Proarrhythmia ([1]; conversion of recent onset symptomatic AF and AFL) of the same molecule?
A: The Proarrhythmia was “absence of proarrhythmia”.

Q: What about the “Serious adverse events in the study” value ([1]; one at 200 mg, one at 400 mg, neither related to the study drug) of the same molecule?
A: The value was “two”.

Q: What about the Plasma half-life ([2]; in vivo) of the same molecule?
A: Its Plasma half-life is “about 22 hours”.

Q: And the “Steady state achieved within” value ([2]; oral dosing, some cases)?
A: Its value is at most 3 days.

Q: And the “Highest plasma level, low concentration group” value [3]?
A: Its value is about 40 ng/mL.

Q: What about the “Systolic blood pressure and heart rate” value ([4]; 100 mg for 7 days) of the same molecule?
A: The value was “increases in systolic blood pressure and heart rate were seen”.

Q: What about the “Time to steady-state levels” value ([4]; all patients, 50, 100, 150 mg daily) of the same molecule?
A: Its value is “within one week”.

Q: What about the “Difference in Cmax concentrations or AUC between slower and higher metabolism groups” value [5] of the same molecule?
A: The value was at least 10 fold.

Q: What about the “All patients achieved steady state after” value [6] of the same molecule?
A: Its value is 7 to 10 days.

Q: What about the “Dose proportionality of steady-state serum levels” value [6] of the same molecule?
A: The value was “disproportionately and statistically greater levels at higher doses”.

Q: What about the “Steady-state plasma concentrations achieved after” value [6] of the same molecule?
A: Its value is 3 days.

Q: And the “Improvement of conversion (percent increase over placebo)” value ([7]; 200 mg, 0-4 hours)?
A: Its value is 38%.

Q: What about the “Improvement of conversion (percent increase over placebo)” value ([7]; 200 mg, 0-8 hours) of the same molecule?
A: The value was 96%.

Q: What about the “Improvement of conversion (percent increase over placebo)” value ([7]; 200 mg, 0-24 hours) of the same molecule?
A: The value was 55%.

Q: And the “Improvement of conversion (percent increase over placebo)” value ([7]; 300 mg, 0-24 hours)?
A: Its value is 68%.

Q: What about the “Improvement of conversion (percent increase over placebo)” value ([7]; 400 mg, 0-4 hours) of the same molecule?
A: Its value is 300%.

Q: What about the “Improvement of conversion (percent increase over placebo)” value ([7]; 400 mg, 0-8 hours) of the same molecule?
A: Its value is 230%.

Q: What about the “Dose dependence of conversion to sinus rhythm” value ([7]; doses of 200, 300 and 400 mg) of the same molecule?
A: The value was “highly statistically significant dose dependent increase”.

Q: What about the “PK linearity / dose proportionality” value (clinical) of the same molecule?
A: The value was “linear and dose proportional”.

Q: And the “TMax (mean +− SD)” value (clinical)?
A: The value was “TMax 1.27 +− 0.5 hr”.

Q: And the TMax range (clinical; 50 mg)?
A: The TMax range was “(0.5-2.0) hr”.

Q: And the half-life (clinical; 50 mg)?
A: Its half-life is 4.71 to 111 h.

Q: And the half-life (clinical; 75 mg)?
A: Its half-life is 10.3 to 117 h.

Q: What about the half-life (clinical; 100 mg) of the same molecule?
A: The half-life was 5.56 to 125 h.

Q: And the AUC ([8]; fasting (no food intake for eight hours))?
A: The AUC was “lowest AUC”.

Q: And the Cmax ([8]; high-fat diet (about 73 g fat) versus fasting and low-fat)?
A: The Cmax was “significantly increased Cmax”.

Q: And the “Time the concentration remains elevated” value ([8]; high-fat diet)?
A: The value was “four to six hours”.

Q: What about the tmax ([8]; high-fat diet) of the same molecule?
A: Its tmax is “nearly two and a half hours”.

Q: And the “Concentration at which most conversions occurred” value [9]?
A: The value was “about 60 ng/ml”.
